Measurements as given in US4746663A, “Pyrazolo[4,3-d]pyrimidine derivative, process for its production, and antihyperlipidemic or antiatherosclerotic agent containing it” (Nissan Chemical Industries Ltd., priority 1985, dated 1988).
Entries after “also recorded” stand apart in the source; their conditions may differ. Blank lines part the entries; values can stand above or below the compound they belong to.

Experiments:
[1] = system: emulsion-induced hyperlipidemic rats; assay: Test 1: antihyperlipidemic activity in emulsion-induced hyperlipidemic rats; assay type: in vivo, Male S.D. rats; details: via stomach tube daily, 3 days; for Reduction rate of serum Chol. / Increase rate of serum HDLChol.: vs control group; for Degree of hepatomegaly (change rate of the liver weight): liver weight per 100 g body weight vs control group
Description: The antihyperlipidemic activity in emulsion-induced hyperlipidemic rats:
Male S.D. rats weighing 80-90 g (4 weeks old) were used. They were divided into groups of 5 to 6 rats each. The test compounds suspended in 0.5% CMC-Na(carboxymethyl cellulose sodium salt) were given to the rats in a daily dose of 4 ml/kg via stomach tube every 10:00 a.m. After 30 min., lipids emulsion having the following composition was orally given to the rats in an amount of 2.5 ml per rat.
During the experimental period of 3 days, the rats were fed on a standard commercial diet and water ad libitum. […] The total cholesterol and HDL cholesterol were measured.
The weight of the liver was measured. To the control group, only the aqueous CMC-Na solution and the lipids emulsion were given.
The fractionation of lipoproteins was conducted by a dextran sulfate-MgCl2 precipitation method.
Cholesterol in serum was measured by means of a cholesterol measuring kit (Cholesterol C-Test Wako, manufactured by Wako Junyaku Co., Ltd.), and cholesterol in HDL was measured by means of NC Hi-Set, manufactured by Nippon Chemiphar Co., Ltd.
Further, the reduction rate of Chol was calculated by the following equation. [formula] where A is the amount of serum Chol (mg/dl) of the control group, and B is the amount of serum Chol (mg/dl) of the group to which the therapeutic agent was administered.
Likewise, the increase rate of HDL-Chol was calculated by the following equation. [formula] where C is the amount of serum HDL-Chol (mg/dl) of the control group, and D is the amount of serum HDL-Chol (mg/dl) of the group to which the therapeutic agent was administered.
The degree of hepatomegaly (i.e. the change rate of the liver weight) was calculated by the following equation. [formula] where E is the liver weight (g) per 100 g of the body weight of the control group, and F is the liver weight (g) per 100 g of the body weight of the group to which the therapeutic agent was administered.

[2] = animal experiments; Cancer Res., 39, 3419 (1979); cited from earlier work
[3] = literature, in words; cited from earlier work
[4] = system: serum lipid; details: Science, 193, 903 (1976); J. Lipid Res., 12, 596 (1971); cited from earlier work
[5] = Test 2: acute toxicity; details: mouse, in vivo, po, 1000 mg/kg in corn oil, male ddY mice, after seven days
Description: The test compounds dissolved in corn oil were administered p.o. to male ddY mice. The acute toxicity was determined based on the mortality after seven days. In respect of the compounds of Examples 1 and 2 of the present invention, the mortality was 0% even at a dose of as high as 1000 mg/kg by oral administration.

[6] = 300 mg/kg, minus value represents a reduction rate

Degree of hepatomegaly (change rate of the liver weight) ([1]; 300 mg/kg): 12.1%
Structure (SMILES): CCOC(=O)C(C)(C)Oc1ccc(Cl)cc1 [Clofibrate, reference compound]
Reduction rate of serum Chol. ([1]; 300 mg/kg): 35.6%
Increase rate of serum HDLChol. [1, 6]: -18.2%
hepatic carcinoma [2]: brings about hepatic carcinoma
subsidiary ill effects [3]: myalgia or hepatic insufficiency; also recorded: likely to lead to gallstone formation

Structure (SMILES): O=C(O)c1cccnc1 [nicotinic acid]
subsidiary ill effects [3]: flashing or gastroenteric troubles

Structure (SMILES): Nc1ncnc2[nH]ncc12 [1H-pyrazolo[3,4-d]pyrimidine-4-amine]
function to reduce serum lipid [4]: function to reduce serum lipid

Structure (SMILES): CCCCCCCCCCCCCCCCOc1c2ncnc(SCC(=O)O)c2nn1C [Example 2, 2-Methyl-3-cetyloxy-7-carboxymethylthio-pyrazolo[4,3-d]pyrimidine]
mortality at 168 h [5]: 0%
Reduction rate of serum Chol. ([1]; 300 mg/kg): 41.0%
Increase rate of serum HDLChol. [1, 6]: 14.1%
Degree of hepatomegaly (change rate of the liver weight) ([1]; 300 mg/kg): 9.2%

Structure (SMILES): CCCCC/C=C\C/C=C\CCCCCCCCOc1c2ncnc(SCC(=O)O)c2nn1C [Example 1, 2-Methyl-3-linoleyloxy-7-carboxymethylthio-pyrazolo[4,3-d]pyrimidine]
mortality at 168 h [5]: 0%
Increase rate of serum HDLChol. ([1]; 25 mg/kg): 21.8%
Reduction rate of serum Chol. ([1]; 25 mg/kg): 25.6%
Degree of hepatomegaly (change rate of the liver weight) ([1]; 25 mg/kg): 6.0%
Increase rate of serum HDLChol. ([1]; 50 mg/kg): 13.4%
Reduction rate of serum Chol. ([1]; 50 mg/kg): 35.5%
Degree of hepatomegaly (change rate of the liver weight) ([1]; 50 mg/kg): 7.6%
Reduction rate of serum Chol. ([1]; 300 mg/kg): 73.5%
Increase rate of serum HDLChol. [1, 6]: -17.7%
Degree of hepatomegaly (change rate of the liver weight) ([1]; 300 mg/kg): 17.8%
